Results on 19 compounds are retold here after patent US12637453B2, “Pyrazolopyridine inhibitors of c-Jun-n-Terminal kinases and uses thereof” (Dana-Farber Cancer Institute, Inc., priority 2019, dated 2026).

Each structure is given as a SMILES string. Some results are limits rather than exact numbers.

Holding throughout (format): biochemical
For one experiment, the target named is JNK1 (Homo sapiens, UniProt P45983). Briefly: IC50 assay for JNK kinase inhibition, JNK1.
For the next experiment, the target named is JNK2 (Homo sapiens, UniProt P45984). Put plainly: IC50 assay for JNK kinase inhibition, JNK2.
Another experiment has as its target JNK3 (Homo sapiens, UniProt P53779). Briefly: IC50 assay for JNK kinase inhibition, JNK3.

JNK1, sequence (P45983 whole entry): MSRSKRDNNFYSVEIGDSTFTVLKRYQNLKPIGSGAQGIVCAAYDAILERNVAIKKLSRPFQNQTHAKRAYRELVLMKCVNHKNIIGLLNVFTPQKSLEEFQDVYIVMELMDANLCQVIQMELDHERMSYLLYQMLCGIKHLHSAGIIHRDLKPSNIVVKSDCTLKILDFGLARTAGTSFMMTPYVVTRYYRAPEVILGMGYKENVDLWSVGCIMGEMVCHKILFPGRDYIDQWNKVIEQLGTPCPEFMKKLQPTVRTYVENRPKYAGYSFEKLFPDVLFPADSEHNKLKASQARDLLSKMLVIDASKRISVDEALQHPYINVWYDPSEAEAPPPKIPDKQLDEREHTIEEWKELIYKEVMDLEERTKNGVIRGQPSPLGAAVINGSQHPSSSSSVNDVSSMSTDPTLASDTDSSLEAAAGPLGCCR
JNK2, sequence (P45984 whole entry): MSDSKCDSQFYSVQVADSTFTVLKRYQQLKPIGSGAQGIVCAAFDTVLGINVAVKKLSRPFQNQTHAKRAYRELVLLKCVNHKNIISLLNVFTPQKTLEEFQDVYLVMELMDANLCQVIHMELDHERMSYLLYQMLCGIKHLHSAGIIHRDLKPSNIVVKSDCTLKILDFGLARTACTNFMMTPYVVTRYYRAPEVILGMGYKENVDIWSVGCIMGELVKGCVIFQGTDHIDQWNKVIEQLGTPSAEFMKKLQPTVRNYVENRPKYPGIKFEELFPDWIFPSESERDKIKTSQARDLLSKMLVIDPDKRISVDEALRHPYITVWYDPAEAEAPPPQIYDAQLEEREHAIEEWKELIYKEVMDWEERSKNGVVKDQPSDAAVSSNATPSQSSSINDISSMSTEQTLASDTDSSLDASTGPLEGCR
JNK3, sequence (P53779 whole entry): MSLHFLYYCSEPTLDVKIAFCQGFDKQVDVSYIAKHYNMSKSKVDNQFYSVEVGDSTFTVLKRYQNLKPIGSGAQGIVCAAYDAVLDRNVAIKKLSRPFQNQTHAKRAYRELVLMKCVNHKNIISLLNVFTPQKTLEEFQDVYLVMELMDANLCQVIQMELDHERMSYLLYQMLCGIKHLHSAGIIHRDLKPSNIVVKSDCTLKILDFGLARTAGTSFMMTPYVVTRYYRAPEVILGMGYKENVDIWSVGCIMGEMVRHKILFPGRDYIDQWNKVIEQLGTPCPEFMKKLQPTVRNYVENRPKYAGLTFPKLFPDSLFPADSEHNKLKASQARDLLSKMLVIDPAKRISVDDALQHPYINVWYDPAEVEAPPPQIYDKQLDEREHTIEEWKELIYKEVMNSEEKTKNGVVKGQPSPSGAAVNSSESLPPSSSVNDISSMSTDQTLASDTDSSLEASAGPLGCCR

In the case of `CN(C)C/C=C/C(=O)Nc1ccc2c(N3CC[C@H](Nc4nccc(-c5c(-c6ccccc6)nn6ccccc56)n4)C3)nccc2c1` [I-20, (S,E)-4-(dimethylamino)-N-(1-(3-((4-(2-phenylpyrazolo[1,5-a]pyridin-3-yl)pyrimidin-2-yl)amino)pyrrolidin-1-yl)isoquinolin-6-yl)but-2-enamide], the results for the half-maximal inhibitory concentration (IC50) at JNK1, at JNK2 and at JNK3 were 168 nM, 10 nM and 12 nM, respectively.

In the case of `Cc1cccn2nc(-c3ccccc3)c(-c3ccnc(N[C@H]4CCN(C(=O)c5ccc(NC(=O)/C=C/CN(C)C)cc5)C4)n3)c12` [I-23, (S,E)-4-(dimethylamino)-N-(4-(3-((4-(4-methyl-2-phenylpyrazolo[1,5-a]pyridin-3-yl)pyrimidin-2-yl)amino)pyrrolidine-1-carbonyl)phenyl)but-2-enamide], the values for the half-maximal inhibitory concentration (IC50) against JNK1, against JNK2 and against JNK3 were 1140 nM, 142 nM and 396 nM, respectively.

For `C[C@H]1CN(C(=O)c2ccc(NC(=O)CCCN(C)C)cc2)C[C@H]1Nc1nccc(-c2c(-c3ccccc3)nn3ccccc23)n1` [I-27, 4-(dimethylamino)-N-(4-((3S,4S)-3-methyl-4-((4-(2-phenylpyrazolo[1,5-a]pyridin-3-yl)pyrimidin-2-yl)amino)pyrrolidine-1-carbonyl)phenyl)butanamide], the results for the IC50 against JNK1, on JNK2 and on JNK3 were 2600 nM, 99.5 nM and 790 nM, respectively.

As for `CN(C)CCCC(=O)Nc1ccc(C(=O)N2CCC[C@@H](Nc3nccc(-c4c(-c5ccccc5)nn5ccccc45)n3)C2)cc1` [I-6, (R)-4-(dimethylamino)-N-(4-(3-((4-(2-phenylpyrazolo[1,5-a]pyridin-3-yl)pyrimidin-2-yl)amino)piperidine-1-carbonyl)phenyl)butanamide], the IC50 (in general, the point on the concentration scale where inhibition reaches its midpoint) against JNK1 came to 278 nM; at JNK2, 40 nM; on JNK3, 1090 nM.

Take `C=CC(=O)Nc1ccc(C(=O)N2CCC[C@H](Nc3nccc(-c4c(-c5ccccc5)nn5ccccc45)n3)C2)cc1` [I-3, (S)-N-(4-(3-((4-(2-phenylpyrazolo[1,5-a]pyridin-3-yl)pyrimidin-2-yl)amino)piperidine-1-carbonyl)phenyl)acrylamide]: the IC50 on JNK1 amounted to 26 nM; at JNK2, 5.67 nM; against JNK3, 16.2 nM.

`Cc1ccc2c(-c3ccnc(N[C@H]4CCN(C(=O)c5ccc(NC(=O)/C=C/CN(C)C)cc5)C4)n3)c(-c3ccccc3)nn2c1` [I-24, (S,E)-4-(dimethylamino)-N-(4-(3-((4-(6-methyl-2-phenylpyrazolo[1,5-a]pyridin-3-yl)pyrimidin-2-yl)amino)pyrrolidine-1-carbonyl)phenyl)but-2-enamide]: the IC50 against JNK1 is 18.4 nM; against JNK2, 0.952 nM; on JNK3, 5.53 nM.

Turning to `CN(C)C/C=C/C(=O)Nc1ccc(C(=O)N2CC3CC(Nc4nccc(-c5c(-c6ccccc6)nn6ccccc56)n4)C2C3)cc1` (stereo not drawn) [I-17, (E)-4-(dimethylamino)-N-(4-(6-((4-(2-phenylpyrazolo[1,5-a]pyridin-3-yl)pyrimidin-2-yl)amino)-2-azabicyclo[2.2.1]heptane-2-carbonyl)phenyl)but-2-enamide], the half-maximal inhibitory concentration (IC50) at JNK1 was greater than 10000 nM; at JNK2, 7890 nM; against JNK3, greater than 10000 nM.

Take `CN(C)C/C=C/C(=O)Nc1ccc(C(=O)N2CC[C@@H](Nc3nccc(-c4c(-c5ccccc5)nn5ccccc45)n3)C2)cc1` [I-7, (R,E)-4-(dimethylamino)-N-(4-(3-((4-(2-phenylpyrazolo[1,5-a]pyridin-3-yl)pyrimidin-2-yl)amino)pyrrolidine-1-carbonyl)phenyl)but-2-enamide]: the results for the IC50 on JNK1, at JNK2 and at JNK3 were 12.5 nM, 2.75 nM and 25 nM, respectively.

For `CN(C)C/C=C/C(=O)Nc1ccc(C(=O)N2CCC[C@@H](Nc3nccc(-c4c(-c5ccccc5)nn5ccccc45)n3)C2)cc1` [I-5, (R,E)-4-(dimethylamino)-N-(4-(3-((4-(2-phenylpyrazolo[1,5-a]pyridin-3-yl)pyrimidin-2-yl)amino)piperidine-1-carbonyl)phenyl)but-2-enamide], the IC50 at JNK1 worked out at 569 nM; against JNK2, 24 nM; against JNK3, 15 nM.

On to `CN(C)C/C=C/C(=O)Nc1ccc(C(=O)N2CC[C@H](Nc3nccc(-c4c(-c5cccc(Cl)c5)nn5ccccc45)n3)C2)cc1` [I-25, (S,E)-N-(4-(3-((4-(2-(3-chlorophenyl)pyrazolo[1,5-a]pyridin-3-yl)pyrimidin-2-yl)amino)pyrrolidine-1-carbonyl)phenyl)-4-(dimethylamino)but-2-enamide], for which the results for the half-inhibitory concentration (IC50) against JNK1, at JNK2 and on JNK3 were 90.7 nM, 3.92 nM and 18.3 nM, respectively.

As to `CN(C)C/C=C/C(=O)Nc1ccc(NC(=O)N2CC[C@H](Nc3nccc(-c4c(-c5ccccc5)nn5ccccc45)n3)C2)cc1` [I-18, (S,E)-N-(4-(4-(dimethylamino)but-2-enamido)phenyl)-3-((4-(2-phenylpyrazolo[1,5-a]pyridin-3-yl)pyrimidin-2-yl)amino)pyrrolidine-1-carboxamide], the IC50 worked out at 99.3 nM against JNK1, 12.4 nM at JNK2 and 15.7 nM at JNK3.

For `COc1cccn2nc(-c3ccccc3)c(-c3ccnc(N[C@@H]4CN(C(=O)c5ccc(NC(=O)/C=C/CN(C)C)cc5)C[C@@H]4C)n3)c12` [I-32, (E)-4-(dimethylamino)-N-(4-((3S,4S)-3-((4-(4-methoxy-2-phenylpyrazolo[1,5-a]pyridin-3-yl)pyrimidin-2-yl)amino)-4-methylpyrrolidine-1-carbonyl)phenyl)but-2-enamide], the IC50 against JNK1 is 1810 nM; at JNK2 it was 222 nM; on JNK3 it was greater than 3330 nM.

With `CN(C)C/C=C/C(=O)Nc1cccc(C(=O)N2CC[C@H](Nc3nccc(-c4c(-c5ccccc5)nn5ccccc45)n3)C2)c1` [I-16, (S,E)-4-(dimethylamino)-N-(3-(3-((4-(2-phenylpyrazolo[1,5-a]pyridin-3-yl)pyrimidin-2-yl)amino)pyrrolidine-1-carbonyl)phenyl)but-2-enamide], the concentration for half-maximal inhibition (IC50) was 37.6 nM against JNK1, 6.94 nM at JNK2 and 10.9 nM at JNK3.

Regarding `CN(C)CCCC(=O)Nc1ccc(C(=O)N2CCCC[C@@H](Nc3nccc(-c4c(-c5ccccc5)nn5ccccc45)n3)C2)cc1` [I-10, (R)-4-(dimethylamino)-N-(4-(3-((4-(2-phenylpyrazolo[1,5-a]pyridin-3-yl)pyrimidin-2-yl)amino)azepane-1-carbonyl)phenyl)butanamide], the IC50 against JNK1 was 243 nM; on JNK2, 7.88 nM; against JNK3, 48.1 nM.

As for `Cc1ccc2c(-c3ccnc(N[C@@H]4CN(C(=O)c5ccc(NC(=O)/C=C/CN(C)C)cc5)C[C@@H]4C)n3)c(-c3ccccc3)nn2c1` [I-31, (E)-4-(dimethylamino)-N-(4-((3S,4S)-3-methyl-4-((4-(6-methyl-2-phenylpyrazolo[1,5-a]pyridin-3-yl)pyrimidin-2-yl)amino)pyrrolidine-1-carbonyl)phenyl)but-2-enamide], the IC50 on JNK1 was determined as 2390 nM; against JNK2, 85.8 nM; on JNK3 it was 274 nM.

As for `CN(C)C/C=C/C(=O)Nc1ccc(C(=O)N2CC[C@H](Nc3ncc(Cl)c(-c4c(-c5ccccc5)nn5ccccc45)n3)C2)cc1` [I-21, (S,E)-N-(4-(3-((5-chloro-4-(2-phenylpyrazolo[1,5-a]pyridin-3-yl)pyrimidin-2-yl)amino)pyrrolidine-1-carbonyl)phenyl)-4-(dimethylamino)but-2-enamide], the figures for the IC50 at JNK1, against JNK2 and at JNK3 were 3360 nM, 585 nM and 359 nM, respectively.

For `Nc1ccc(C(=O)N2CCC[C@H](Nc3nccc(-c4c(-c5ccccc5)nn5ccccc45)n3)C2)cc1` [I-4, (S)-(4-aminophenyl)(3-((4-(2-phenylpyrazolo[1,5-a]pyridin-3-yl)pyrimidin-2-yl)amino)piperidin-1-yl)methanone], the half-maximal inhibitory concentration (IC50) on JNK1 came out at 21.4 nM; on JNK2, 2.88 nM; against JNK3 it was 22.5 nM.

For the compound `CN(C)C/C=C/C(=O)Nc1ccc(C(=O)N2CCC[C@H](Nc3nccc(-c4c(-c5ccccc5)nn5ccccc45)n3)C2)cc1` [I-1, (S,E)-4-(dimethylamino)-N-(4-(3-((4-(2-phenylpyrazolo[1,5-a]pyridin-3-yl)pyrimidin-2-yl)amino)piperidine-1-carbonyl)phenyl)but-2-enamide], the 50% inhibitory concentration (IC50) is 44.7 nM on JNK1, 3.65 nM at JNK2 and 2.36 nM against JNK3.

In the case of `CN(C)C/C=C/C(=O)Nc1ccc(C(=O)NC2CCCC(Nc3nccc(-c4c(-c5ccccc5)nn5ccccc45)n3)C2)cc1` (stereo not drawn) [I-15, (E)-4-(4-(dimethylamino)but-2-enamido)-N-(3-((4-(2-phenylpyrazolo[1,5-a]pyridin-3-yl)pyrimidin-2-yl)amino)cyclohexyl)benzamide], the figures for the IC50 against JNK1, against JNK2 and on JNK3 were 481 nM, 38.9 nM and 40.3 nM, respectively.
